Experimental data published in ChEMBL document CHEMBL3046898, “Synthesis and characterization of flurbiprofen hydrazide derivatives as potential anti-HCV, anticancer and antimicrobial agents” (2013).
Calls of active or inactive are those of the source. The rule behind the calls is not given here.

Assays:
[1] = test system: Acinetobacter radioresistens; experiment: Antibacterial activity against Acinetobacter radioresistens at 6.25 to 200 ug/ml after 24 hrs by microwell dilution method; format: functional, organism-based
[2] = test system: Escherichia coli; experiment: Antibacterial activity against Escherichia coli at 10 mg/ml after 24 hrs by disc diffusion method; format: functional, organism-based
[3] = test system: Schwanniomyces occidentalis; experiment: Antifungal activity against Schwanniomyces occidentalis at 10 mg/ml after 48 hrs by disc diffusion method; format: functional, organism-based
[4] = test system: Staphylococcus aureus; experiment: Antibacterial activity against Staphylococcus aureus at 10 mg/ml after 24 hrs by disc diffusion method; format: functional
[5] = test system: Nakaseomyces glabratus; experiment: Antifungal activity against Candida glabrata at 10 mg/ml after 48 hrs by disc diffusion method; format: functional, organism-based
[6] = test system: Candida albicans; experiment: Antifungal activity against Candida albicans at 10 mg/ml after 48 hrs by disc diffusion method; format: functional, organism-based
[7] = test system: Proteus vulgaris; experiment: Antibacterial activity against Proteus vulgaris at 6.25 to 200 ug/ml after 24 hrs by microwell dilution method; format: functional, organism-based
[8] = test system: Pseudomonas aeruginosa; experiment: Antibacterial activity against Pseudomonas aeruginosa at 10 mg/ml after 24 hrs by disc diffusion method; format: functional, organism-based
[9] = test system: Photorhabdus luminescens; experiment: Antibacterial activity against Photorhabdus luminescens at 6.25 to 200 ug/ml after 24 hrs by microwell dilution method; format: functional, organism-based
[10] = test system: Acinetobacter radioresistens; experiment: Antibacterial activity against Acinetobacter radioresistens at 10 mg/ml after 24 hrs by disc diffusion method; format: functional, organism-based
[11] = test system: Hepacivirus hominis; experiment: Inhibition of HCV N-terminal His-tagged NS5B RNA dependent RNA polymerase expressed in Escherichia coli DH5alpha using poly rA/U12 as primer at 200 uM after 60 mins by liquid scintillation counting
[12] = test system: Salmonella paratyphi; experiment: Antibacterial activity against Salmonella paratyphi at 6.25 to 200 ug/ml after 24 hrs by microwell dilution method; format: functional, organism-based; details: Salmonella enterica subsp. enterica serovar Paratyphi A
[13] = test system: Staphylococcus cohnii; experiment: Antibacterial activity against Staphylococcus cohnii at 10 mg/ml after 24 hrs by disc diffusion method; format: functional
[14] = test system: Pichia membranifaciens; experiment: Antifungal activity against Pichia membranifaciens at 10 mg/ml after 48 hrs by disc diffusion method; format: functional, organism-based
[15] = test system: Klebsiella aerogenes; experiment: Antibacterial activity against Enterobacter aerogenes at 10 mg/ml after 24 hrs by disc diffusion method; format: functional, organism-based
[16] = test system: Micrococcus luteus; experiment: Antibacterial activity against Micrococcus luteus at 6.25 to 200 ug/ml after 24 hrs by microwell dilution method; format: functional, organism-based
[17] = test system: Aspergillus; experiment: Antifungal activity against Aspergillus at 10 mg/ml after 72 hrs by disc diffusion method; format: functional, organism-based
[18] = test system: Salmonella paratyphi; experiment: Antibacterial activity against Salmonella paratyphi at 10 mg/ml after 24 hrs by disc diffusion method; format: functional, organism-based; details: Salmonella enterica subsp. enterica serovar Paratyphi A
[19] = test system: Micrococcus lylae; experiment: Antibacterial activity against Micrococcus lylae at 10 mg/ml after 24 hrs by disc diffusion method; format: functional, organism-based
[20] = test system: Micrococcus lylae; experiment: Antibacterial activity against Micrococcus lylae at 6.25 to 200 ug/ml after 24 hrs by microwell dilution method; format: functional, organism-based
[21] = test system: Candida parapsilosis; experiment: Antifungal activity against Candida parapsilosis at 10 mg/ml after 48 hrs by disc diffusion method; format: functional, organism-based
[22] = test system: Kluyveromyces marxianus; experiment: Antifungal activity against Kluyveromyces marxianus at 10 mg/ml after 48 hrs by disc diffusion method; format: functional, organism-based
[23] = test system: Photorhabdus luminescens; experiment: Antibacterial activity against Photorhabdus luminescens at 10 mg/ml after 24 hrs by disc diffusion method; format: functional, organism-based
[24] = test system: Staphylococcus cohnii; experiment: Antibacterial activity against Staphylococcus cohnii at 6.25 to 200 ug/ml after 24 hrs by microwell dilution assay; format: functional, organism-based
[25] = test system: Staphylococcus aureus; experiment: Antibacterial activity against Staphylococcus aureus at 6.25 to 200 ug/ml after 24 hrs by microwell dilution assay; format: functional, organism-based
[26] = test system: Proteus vulgaris; experiment: Antibacterial activity against Proteus vulgaris at 10 mg/ml after 24 hrs by disc diffusion method; format: functional, organism-based
[27] = test system: Candida tropicalis; experiment: Antifungal activity against Candida tropicalis at 10 mg/ml after 48 hrs by disc diffusion method; format: functional, organism-based
[28] = test system: Escherichia coli; experiment: Antibacterial activity against Escherichia coli at 6.25 to 200 ug/ml after 24 hrs by microwell dilution method; format: functional, organism-based
[29] = test system: Micrococcus luteus; experiment: Antibacterial activity against Micrococcus luteus at 10 mg/ml after 24 hrs by disc diffusion method; format: functional, organism-based
[30] = test system: Klebsiella aerogenes; experiment: Antibacterial activity against Enterobacter aerogenes at 6.25 to 200 ug/ml after 24 hrs by microwell dilution method; format: functional, organism-based
[31] = test system: Pseudomonas aeruginosa; experiment: Antibacterial activity against Pseudomonas aeruginosa at 6.25 to 200 ug/ml after 24 hrs by microwell dilution method; format: functional, organism-based

CC(C(=O)N/N=C/c1ccc(C(F)(F)F)cc1)c1ccc(-c2ccccc2)c(F)c1 (stereo unspecified)
Activity [1]: inactive
Activity [2]: inactive
Activity [3]: inactive
Activity [4]: inactive
Activity [5]: inactive
Activity [6]: inactive
Activity [7]: inactive
Activity [8]: inactive
Activity [9]: inactive
Activity [10]: inactive
inhibition [11]: 8%
Activity [12]: inactive
Activity [13]: inactive
Activity [14]: inactive
Activity [15]: inactive
Activity [16]: inactive
Activity [17]: inactive
Activity [18]: inactive
Activity [19]: inactive
Activity [20]: inactive
Activity [21]: inactive
Activity [22]: inactive
Activity [23]: inactive
Activity [24]: inactive
Activity [25]: inactive
Activity [26]: inactive
Activity [27]: inactive
Activity [28]: inactive
Activity [29]: inactive
Activity [30]: inactive
Activity [31]: inactive

CC(C(=O)N/N=C/c1cccc(F)c1)c1ccc(-c2ccccc2)c(F)c1 (stereo unspecified)
Activity [1]: inactive
Activity [2]: inactive
Activity [3]: inactive
Activity [4]: inactive
Activity [5]: inactive
Activity [6]: inactive
Activity [7]: inactive
Activity [8]: inactive
Activity [9]: inactive
Activity [10]: inactive
inhibition [11]: 8%
Activity [12]: inactive
Activity [13]: inactive
Activity [14]: inactive
Activity [15]: inactive
Activity [16]: inactive
Activity [17]: inactive
Activity [18]: inactive
Activity [19]: inactive
Activity [20]: inactive
Activity [21]: inactive
Activity [22]: inactive
Activity [23]: inactive
Activity [24]: inactive
Activity [25]: inactive
Activity [26]: inactive
Activity [27]: inactive
Activity [28]: inactive
Activity [29]: inactive
Activity [30]: inactive
Activity [31]: inactive

CC(C(=O)N/N=C/c1ccccc1Cl)c1ccc(-c2ccccc2)c(F)c1 (stereo unspecified)
Activity [1]: inactive
Activity [2]: inactive
Activity [3]: inactive
Activity [4]: inactive
Activity [5]: inactive
Activity [6]: inactive
Activity [7]: inactive
Activity [8]: inactive
Activity [9]: inactive
Activity [10]: inactive
inhibition [11]: 8%
Activity [12]: inactive
Activity [13]: inactive
Activity [14]: inactive
Activity [15]: inactive
Activity [16]: inactive
Activity [17]: inactive
Activity [18]: inactive
Activity [19]: inactive
Activity [20]: inactive
Activity [21]: inactive
Activity [22]: inactive
Activity [23]: inactive
Activity [24]: inactive
Activity [25]: inactive
Activity [26]: inactive
Activity [27]: inactive
Activity [28]: inactive
Activity [29]: inactive
Activity [30]: inactive
Activity [31]: inactive

CC(C(=O)NN1C(=O)CSC1c1ccccc1F)c1ccc(-c2ccccc2)c(F)c1 (stereo unspecified)
Activity [1]: inactive
Activity [2]: inactive
Activity [3]: inactive
Activity [4]: inactive
Activity [5]: inactive
Activity [6]: inactive
Activity [7]: inactive
Activity [8]: inactive
Activity [9]: inactive
Activity [10]: inactive
inhibition [11]: 8%
Activity [12]: inactive
Activity [13]: inactive
Activity [14]: inactive
Activity [15]: inactive
Activity [16]: inactive
Activity [17]: inactive
Activity [18]: inactive
Activity [19]: inactive
Activity [20]: inactive
Activity [21]: inactive
Activity [22]: inactive
Activity [23]: inactive
Activity [24]: inactive
Activity [25]: inactive
Activity [26]: inactive
Activity [27]: inactive
Activity [28]: inactive
Activity [29]: inactive
Activity [30]: inactive
Activity [31]: inactive

Cc1cc(C)c(/C=N/NC(=O)C(C)c2ccc(-c3ccccc3)c(F)c2)c(C)c1 (stereo unspecified)
Activity [1]: inactive
Activity [2]: inactive
Activity [3]: inactive
Activity [4]: inactive
Activity [5]: inactive
Activity [6]: inactive
Activity [7]: inactive
Activity [8]: inactive
Activity [9]: inactive
Activity [10]: inactive
inhibition [11]: 8%
Activity [12]: inactive
Activity [13]: inactive
Activity [14]: inactive
Activity [15]: inactive
Activity [16]: inactive
Activity [17]: inactive
Activity [18]: inactive
Activity [19]: inactive
Activity [20]: inactive
Activity [21]: inactive
Activity [22]: inactive
Activity [23]: inactive
Activity [24]: inactive
Activity [25]: inactive
Activity [26]: inactive
Activity [27]: inactive
Activity [28]: inactive
Activity [29]: inactive
Activity [30]: inactive
Activity [31]: inactive

C=CCNC(=S)NNC(=O)C(C)c1ccc(-c2ccccc2)c(F)c1 (stereo unspecified)
Activity [1]: inactive
Activity [2]: inactive
Activity [3]: inactive
Activity [4]: inactive
Activity [5]: inactive
Activity [6]: inactive
Activity [7]: inactive
Activity [8]: inactive
Activity [9]: inactive
Activity [10]: inactive
inhibition [11]: 8%
Activity [12]: inactive
Activity [13]: inactive
Activity [14]: inactive
Activity [15]: inactive
Activity [16]: inactive
Activity [17]: inactive
Activity [18]: inactive
Activity [19]: inactive
Activity [20]: inactive
Activity [21]: inactive
Activity [22]: inactive
Activity [23]: inactive
Activity [24]: inactive
Activity [25]: inactive
Activity [26]: inactive
Activity [27]: inactive
Activity [28]: inactive
Activity [29]: inactive
Activity [30]: inactive
Activity [31]: inactive
